Data: PMC11101940, “A highly selective KIT inhibitor MOD000001 suppresses IgE-mediated mast cell activation” (The Journal of Allergy and Clinical Immunology: Global, 2024)

How the values were obtained:
Assay type in all cases: biochemical
[1] = molecular target: platelet derived growth factor-receptor B (PDGFRB) (Homo sapiens, UniProt P09619); assay: cell-free recombinant human kinase assay
[2] = molecular target: platelet derived growth factor-receptor A (PDGFRA) (Homo sapiens, UniProt P16234); assay: cell-free recombinant human kinase assay
platelet derived growth factor-receptor A (PDGFRA), sequence (P16234 24-1089): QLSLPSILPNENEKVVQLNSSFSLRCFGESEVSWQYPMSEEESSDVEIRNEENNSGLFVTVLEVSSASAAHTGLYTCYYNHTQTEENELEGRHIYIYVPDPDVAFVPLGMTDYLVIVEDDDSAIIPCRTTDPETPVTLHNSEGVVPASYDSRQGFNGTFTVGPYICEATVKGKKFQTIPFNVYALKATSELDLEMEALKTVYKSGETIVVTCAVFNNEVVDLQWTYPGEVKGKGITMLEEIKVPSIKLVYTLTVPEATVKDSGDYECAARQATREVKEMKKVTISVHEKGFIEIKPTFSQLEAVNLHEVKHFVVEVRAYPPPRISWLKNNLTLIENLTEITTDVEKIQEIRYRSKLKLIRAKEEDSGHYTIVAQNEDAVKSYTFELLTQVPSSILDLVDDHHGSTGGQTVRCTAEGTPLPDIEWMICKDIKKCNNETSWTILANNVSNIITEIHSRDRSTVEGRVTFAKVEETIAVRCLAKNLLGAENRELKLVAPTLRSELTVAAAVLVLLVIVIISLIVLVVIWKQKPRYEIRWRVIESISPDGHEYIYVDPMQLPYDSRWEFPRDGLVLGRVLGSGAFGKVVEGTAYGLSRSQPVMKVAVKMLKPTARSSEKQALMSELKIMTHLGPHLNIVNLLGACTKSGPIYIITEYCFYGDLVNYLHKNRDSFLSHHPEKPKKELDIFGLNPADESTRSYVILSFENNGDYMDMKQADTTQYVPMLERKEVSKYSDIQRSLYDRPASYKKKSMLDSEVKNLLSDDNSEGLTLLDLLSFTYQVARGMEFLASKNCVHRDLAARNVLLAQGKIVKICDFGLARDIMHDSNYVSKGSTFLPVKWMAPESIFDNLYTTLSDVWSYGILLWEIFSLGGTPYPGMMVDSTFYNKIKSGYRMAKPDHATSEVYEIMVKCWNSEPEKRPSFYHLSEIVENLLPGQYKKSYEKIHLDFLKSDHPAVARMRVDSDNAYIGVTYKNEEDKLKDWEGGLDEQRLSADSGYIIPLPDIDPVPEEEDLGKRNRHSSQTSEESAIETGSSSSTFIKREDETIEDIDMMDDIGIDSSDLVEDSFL

KIT = KIT (Homo sapiens, UniProt P10721); assay: cell-free recombinant human kinase assay (also KINOMEscan binding)
KIT, sequence (P10721 26-976): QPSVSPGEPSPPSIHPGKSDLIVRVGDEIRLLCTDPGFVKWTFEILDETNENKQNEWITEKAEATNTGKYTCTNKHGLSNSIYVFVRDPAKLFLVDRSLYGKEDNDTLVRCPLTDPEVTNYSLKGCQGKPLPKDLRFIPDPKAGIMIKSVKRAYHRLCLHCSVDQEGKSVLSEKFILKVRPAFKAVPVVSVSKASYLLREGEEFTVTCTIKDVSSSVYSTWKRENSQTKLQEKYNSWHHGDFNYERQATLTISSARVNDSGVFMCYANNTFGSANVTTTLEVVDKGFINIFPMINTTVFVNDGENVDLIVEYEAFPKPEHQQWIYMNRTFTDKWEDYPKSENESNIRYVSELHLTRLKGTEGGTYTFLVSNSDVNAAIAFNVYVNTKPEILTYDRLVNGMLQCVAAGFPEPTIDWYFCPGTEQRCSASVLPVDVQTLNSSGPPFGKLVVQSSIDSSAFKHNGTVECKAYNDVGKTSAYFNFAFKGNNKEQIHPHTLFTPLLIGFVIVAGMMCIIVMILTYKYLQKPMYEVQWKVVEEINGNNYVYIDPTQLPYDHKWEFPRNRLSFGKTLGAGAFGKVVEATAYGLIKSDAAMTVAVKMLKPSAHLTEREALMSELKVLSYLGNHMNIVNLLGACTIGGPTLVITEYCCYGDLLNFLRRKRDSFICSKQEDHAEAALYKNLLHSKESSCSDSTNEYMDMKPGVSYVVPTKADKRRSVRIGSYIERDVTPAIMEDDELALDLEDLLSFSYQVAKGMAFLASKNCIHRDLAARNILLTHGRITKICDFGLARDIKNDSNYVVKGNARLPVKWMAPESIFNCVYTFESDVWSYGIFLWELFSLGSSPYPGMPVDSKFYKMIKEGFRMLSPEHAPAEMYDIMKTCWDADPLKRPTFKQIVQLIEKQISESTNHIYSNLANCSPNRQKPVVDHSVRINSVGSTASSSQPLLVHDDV

platelet derived growth factor-receptor B (PDGFRB), sequence (P09619 33-1106): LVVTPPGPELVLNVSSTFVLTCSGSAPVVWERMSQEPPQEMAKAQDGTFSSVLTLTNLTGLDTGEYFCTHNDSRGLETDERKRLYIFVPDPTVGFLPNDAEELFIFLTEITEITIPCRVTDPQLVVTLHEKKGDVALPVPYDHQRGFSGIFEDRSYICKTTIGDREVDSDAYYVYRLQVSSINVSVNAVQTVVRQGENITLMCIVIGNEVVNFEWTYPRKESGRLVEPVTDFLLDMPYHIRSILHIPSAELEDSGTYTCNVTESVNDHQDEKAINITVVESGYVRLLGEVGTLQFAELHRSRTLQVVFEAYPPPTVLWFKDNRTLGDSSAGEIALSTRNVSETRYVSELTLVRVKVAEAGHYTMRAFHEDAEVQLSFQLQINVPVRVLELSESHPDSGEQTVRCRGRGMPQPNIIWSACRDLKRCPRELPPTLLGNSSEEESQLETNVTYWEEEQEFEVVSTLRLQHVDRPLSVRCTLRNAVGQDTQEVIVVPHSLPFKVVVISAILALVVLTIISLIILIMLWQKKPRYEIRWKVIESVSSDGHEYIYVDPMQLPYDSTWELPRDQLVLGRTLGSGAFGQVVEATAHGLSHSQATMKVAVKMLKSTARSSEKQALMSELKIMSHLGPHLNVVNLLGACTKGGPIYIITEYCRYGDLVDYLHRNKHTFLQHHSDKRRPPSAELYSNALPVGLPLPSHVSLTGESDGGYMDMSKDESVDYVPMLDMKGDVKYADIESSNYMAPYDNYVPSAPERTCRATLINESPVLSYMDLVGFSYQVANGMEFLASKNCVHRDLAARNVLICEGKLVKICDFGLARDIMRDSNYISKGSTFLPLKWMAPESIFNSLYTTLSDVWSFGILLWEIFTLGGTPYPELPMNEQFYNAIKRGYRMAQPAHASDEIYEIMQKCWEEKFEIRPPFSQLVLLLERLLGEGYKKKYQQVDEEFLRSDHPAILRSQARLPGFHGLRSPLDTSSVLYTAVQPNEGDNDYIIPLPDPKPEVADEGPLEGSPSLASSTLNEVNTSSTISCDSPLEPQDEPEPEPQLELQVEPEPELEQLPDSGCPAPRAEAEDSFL

With MOD000001 the IC50 [1] was 218 nM, the IC50 [2] was 1400 nM and the IC50 (KIT) was 2 nM.
